# Assay results as given in US7825256B2, “Inducible nitric oxide synthase dimerization inhibitors” (Kalypsys, Inc., priority 2004, dated 2010).
# pEC50: −log10 of the molar value.
# Target: T1, hiNOS (Homo sapiens, UniProt P35228)
# T1 construct: expressed in transfected cells; host or cells: HEK293
# Assay: DAN assay, hiNOS expressed in transiently transfected HEK293 cells
# Format: cell-based
# Conditions: HEK293 cells transiently transfected with hiNOS
# Source text: The source of nitric oxide synthase (NOS) enzyme can be generated in several ways including induction of endogenous iNOS using cytokines and/or lipopolysaccharide (LPS) in various cell types known in the art. Alternatively, the gene encoding the enzyme can be cloned and the enzyme can be generated in cells via heterologous expression from a transient or stable expression plasmid with suitable features for protein expression as are known in the art. Enzymatic activity (nitric oxide production) is calcium independent for iNOS, while the constitutive NOS isoforms, nNOS and eNOS, become active with the addition of various cofactors added to cellular media or extract as are well known in the art. Enzymes specified in Table 1 were expressed in HEK293 cells transiently transfected with the indicated NOS isoform.
# A major metabolic pathway for nitric oxide is to nitrate and nitrite, which are stable metabolites within tissue culture, tissue, plasma, and urine (S Moncada, A Higgs, N Eng J Med 329, 2002 (1993)).
# The level of nitrate or nitrite in the specimen can be quantified by any method known in the art which provides adequate sensitivity and reproducibility. A variety of protocols have also been described for detecting and quantifying nitrite and nitrate levels in biological fluids by ion chromatography (e.g., S A Everett et al., J. Chromatogr. 706, 437 (1995); J M Monaghan et al., J. Chromatogr. 770, 143 (1997)), high-performance liquid chromatography (e.g., M Kelm et al., Cardiovasc. Res. 41, 765 (1999)), and capillary electrophoresis (M A Friedberg et al., J. Chromatogr. 781, 491 (1997)). For example, 2,3-diaminonaphthalene reacts with the nitrosonium cation that forms spontaneously from NO to form the fluorescent product […]. Using 2,3-diaminonaphthalene (“DAN”), researchers have developed a rapid, quantitative fluorometric assay that can detect from 10 nM to 10 μM nitrite and is compatible with a multi-well microplate format. […] DAN reacts with nitrite ion and gives fluorescent […] (M C Carré et al., Analysis 27, 835-838 (1999)). Table 1 provides the test results of various compounds of the subject invention using the DAN assay.
# A specimen can be processed prior to determination of nitrate or nitrite as required by the quantification method, or in order to improve the results, or for the convenience of the investigator. For example, processing can involve centrifuging, filtering, or homogenizing the sample. If the sample is whole blood, the blood can be centrifuged to remove cells and the nitrate or nitrite assay performed on the plasma or serum fraction. If the sample is tissue, the tissue can be dispersed or homogenized by any method known in the art prior to determination of nitrate or nitrite. It may be preferable to remove cells and other debris by centrifugation or another method and to determine the nitrate or nitrite level using only the fluid portion of the sample, or the extracellular fluid fraction of the sample. The sample can also be preserved for later determination, for example by freezing of urine or plasma samples. When appropriate, additives may be introduced into the specimen to preserve or improve its characteristics for use in the nitrate or nitrite assay.
# The “level” of nitrate, nitrite, or other NO-related product usually refers to the concentration (in moles per liter, micromoles per liter, or other suitable units) of nitrate or nitrite in the specimen, or in the fluid portion of the specimen. However, other units of measure can also be used to express the level of nitrate or nitrite. For example, an absolute amount (in micrograms, milligrams, nanomoles, moles, or other suitable units) can be used, particularly if the amount refers back to a constant amount (e.g., grams, kilograms, milliliters, liters, or other suitable units) of the specimens under consideration. A number of commercially available kits can be used.
row,pEC50,Compound
1,> 6.00,"CN(CCCN(Cc1ccc(O)cc1)Cc1ccc(O)cc1)c1nc(-n2ccnc2)ns1 [Example 36, N-(3-Imidazol-1-yl-[1,2,4]thiadiazol-5-yl)-N′,N′-bis-(4-hydroxy-benzyl)-N-methyl-propane-1,3-diamine]"
2,> 6.00,"Cc1cc(C2CCCN2CC(=O)NCc2ccc3c(c2)OCO3)nc(-n2ccnc2)n1 (stereo not drawn) [Example 37, N-Benzo[1,3]dioxol-5-ylmethyl-2-[2-(2-imidazol-1-yl-6-methyl-pyrimidin-4-yl)-pyrrolidin-1-yl]-acetamide]"
3,> 6.00,"Cc1cc(C2CCCN2CCNCc2ccc3c(c2)OCO3)nc(-n2ccnc2)n1 (stereo not drawn) [Example 39, Benzo[1,3]dioxol-5-ylmethyl-{2-[2-(2-imidazol-1-yl-6-methyl-pyrimidin-4-yl)-pyrrolidin-1-yl]-ethyl}-amine]"
4,> 6.00,"CNC(=O)C(CCCNCc1ccc2c(c1)OCO2)c1nc(-n2ccnc2)ns1 (stereo not drawn) [Example 40, 5-[(Benzo[1,3]dioxol-5-ylmethyl)-amino]-2-(3-imidazol-1-yl-[1,2,4]thiadiazol-5-yl)-pentanoic acid methylamide]"
5,> 6.00,"CCOC(=O)C(NC(=O)CNCc1ccc2c(c1)OCO2)c1cc(C)nc(-n2ccnc2)n1 (stereo not drawn) [Example 41, {2-[(Benzo[1,3]dioxol-5-ylmethyl)-amino]-acetylamino}-(2-imidazol-1-yl-6-methyl-pyrimidin-4-yl)-acetic acid ethyl ester]"
6,> 6.00,"CNC(=O)C(NC(=O)CNCc1ccc2c(c1)OCO2)c1cc(C)nc(-n2ccnc2)n1 (stereo not drawn) [Example 42, 2-{2-[(Benzo[1,3]dioxol-5-ylmethyl)-amino]-acetylamino}-2-(2-imidazol-1-yl-6-methyl-pyrimidin-4-yl)-N-methyl-acetamide]"
7,> 6.00,"Cc1cc(C(C)NCCOCc2ccc3c(c2)OCO3)nc(-n2ccnc2)n1 (stereo not drawn) [Example 43, [2-(Benzo[1,3]dioxol-5-ylmethoxy)-ethyl]-[1-(2-imidazol-1-yl-6-methyl-pyrimidin-4-yl)-ethyl]-amine]"
8,> 6.00,"Cc1cc(C(C)NCCNC(C)c2ccc3c(c2)OCO3)nc(-n2ccnc2)n1 (stereo not drawn) [Example 44, N-(1-Benzo[1,3]dioxol-5-yl-ethyl)-N′-[1-(2-imidazol-1-yl-6-methyl-pyrimidin-4-yl)-ethyl]-ethane-1,2-diamine]"
9,> 6.00,"Cc1cc(C(C)NCCNCc2ccc3c(c2)OCCO3)nc(-n2ccnc2)n1 (stereo not drawn) [Example 45, N-(2,3-Dihydro-benzo[1,4]dioxin-6-ylmethyl)-N′-[1-(2-imidazol-1-yl-6-methyl-pyrimidin-4-yl)-ethyl]-ethane-1,2-diamine]"
10,> 6.00,"CN(CC1CCN(Cc2ccc3c(c2)OCO3)C1)c1nc(-n2ccnc2)ns1 (stereo not drawn) [Example 46, (1-Benzo[1,3]dioxol-5-ylmethyl-pyrrolidin-3-ylmethyl)-(3-imidazol-1-yl-[1,2,4]thiadiazol-5-yl)-methyl-amine]"
11,> 6.00,"CN(CCNCc1ccc2c(c1)OCO2)c1nc(-n2ccnc2)ns1 [Example 47, N′-Benzo[1,3]dioxol-5-ylmethyl-N-(3-imidazol-1-yl-[1,2,4]thiadiazol-5-yl)-N-methyl-ethane-1,2-diamine]"
12,> 6.00,"CN(CCCCNCc1ccc2c(c1)OCO2)c1nc(-n2ccnc2)ns1 [Example 48, N′-Benzo[1,3]dioxol-5-ylmethyl-N-(3-imidazol-1-yl-[1,2,4]thiadiazol-5-yl)-N-methyl-butane-1,4-diamine]"
13,> 6.00,"NCCCN(Cc1nccs1)c1nc(-n2ccnc2)ns1 [Example 52, N′-(3-Imidazol-1-yl-[1,2,4]thiadiazol-5-yl)-N′-thiazol-2-ylmethyl-propane-1,3-diamine]"
14,> 6.00,"CCOC(=O)CN(CCCNCc1ccc2c(c1)OCO2)c1nc(-n2ccnc2)ns1 [Example 53, [{3-[(Benzo[1,3]dioxol-5-ylmethyl)-amino]-propyl}-(3-imidazol-1-yl-[1,2,4]thiadiazol-5-yl)-amino]-acetic acid ethyl ester]"
15,> 6.00,"NC(=O)CN(CCCNCc1ccc2c(c1)OCO2)c1nc(-n2ccnc2)ns1 [Example 54, 2-[{3-[(Benzo[1,3]dioxol-5-ylmethyl)-amino]-propyl}-(3-imidazol-1-yl-[1,2,4]thiadiazol-5-yl)-amino]-acetamide]"
16,> 4.30,"O=C(O)CN(CCCNCc1ccc2c(c1)OCO2)c1nc(-n2ccnc2)ns1 [Example 55, [{3-[(Benzo[1,3]dioxol-5-ylmethyl)-amino]-propyl}-(3-imidazol-1-yl-[1,2,4]thiadiazol-5-yl)-amino]-acetic acid]"
17,> 6.00,"CNC(=O)CN(CCCNCc1ccc2c(c1)OCO2)c1nc(-n2ccnc2)ns1 [Example 56, 2-[{3-[(Benzo[1,3]dioxol-5-ylmethyl)-amino]-propyl}-(3-imidazol-1-yl-[1,2,4]thiadiazol-5-yl)-amino]-N-methyl-acetamide]"
18,> 6.00,"CN(C)C(=O)CN(CCCNCc1ccc2c(c1)OCO2)c1nc(-n2ccnc2)ns1 [Example 57, 2-[{3-[(Benzo[1,3]dioxol-5-ylmethyl)-amino]-propyl}-(3-imidazol-1-yl-[1,2,4]thiadiazol-5-yl)-amino]-N,N-dimethyl-acetamide]"
19,> 6.00,"CCOC(=O)CN(CCCN(C)Cc1ccc2c(c1)OCO2)c1nc(-n2ccnc2)ns1 [Example 58, [[3-(Benzo[1,3]dioxol-5-ylmethyl-methyl-amino)-propyl]-(3-imidazol-1-yl-[1,2,4]thiadiazol-5-yl)-amino]-acetic acid ethyl ester]"
20,> 6.00,"N#CCN(CCCNCc1ccc2c(c1)OCO2)c1nc(-n2ccnc2)ns1 [Example 60, [{3-[(Benzo[1,3]dioxol-5-ylmethyl)-amino]-propyl}-(3-imidazol-1-yl-[1,2,4]thiadiazol-5-yl)-amino]-acetonitrile]"
21,> 6.00,"c1cn(-c2nsc(N(CCCNCc3ccc4c(c3)OCO4)Cc3nnn[nH]3)n2)cn1 [Example 61, N′-Benzo[1,3]dioxol-5-ylmethyl-N-(3-imidazol-1-yl-[1,2,4]thiadiazol-5-yl)-N-(1H-tetrazol-5-ylmethyl)-propane-1,3-diamine]"
22,> 6.00,"CNNC(=N)CN(CCCNCc1ccc2c(c1)OCO2)c1nc(-n2ccnc2)ns1 [Example 62, 2-[{3-[(Benzo[1,3]dioxol-5-ylmethyl)-amino]-propyl}-(3-imidazol-1-yl-[1,2,4]thiadiazol-5-yl)-amino]-acetamidine N′-methyl-hydrazide]"
23,> 6.00,"N=C(CN(CCCNCc1ccc2c(c1)OCO2)c1nc(-n2ccnc2)ns1)NO [Example 63, 2-[{3-[(Benzo[1,3]dioxol-5-ylmethyl)-amino]-propyl}-(3-imidazol-1-yl-[1,2,4]thiadiazol-5-yl)-amino]-N-hydroxy-acetamidine]"
24,> 6.00,"CC(NCCNCc1ccc2c(c1)OCO2)c1nc(-n2ccnc2)ns1 (stereo not drawn) [Example 64, N-Benzo[1,3]dioxol-5-ylmethyl-N′-[1-(3-imidazol-1-yl-[1,2,4]thiadiazol-5-yl)-ethyl]-ethane-1,2-diamine]"
25,> 6.00,"CC(NCCOCc1ccc2c(c1)OCO2)c1nc(-n2ccnc2)ns1 (stereo not drawn) [Example 65, [2-(Benzo[1,3]dioxol-5-ylmethoxy)-ethyl]-[1-(3-imidazol-1-yl-[1,2,4]thiadiazol-5-yl)-ethyl]-amine]"
26,> 6.00,"Cc1cc(C(C)(C)C(=O)NCCNCc2ccc3c(c2)OCO3)nc(-n2ccnc2)n1 [Example 66, N-{2-[(Benzo[1,3]dioxol-5-ylmethyl)-amino]-ethyl}-2-(2-imidazol-1-yl-6-methyl-pyrimidin-4-yl)-isobutyramide]"

row,Compound,pEC50
1,"CC(=O)Oc1ccc(CN(CCCN(C)c2nc(-n3ccnc3)ns2)Cc2ccc(OC(C)=O)cc2)cc1 [Example 35, Acetic acid 4-[((4-acetoxy-benzyl)-{3-[(3-imidazol-1-yl-[1,2,4]thiadiazol-5-yl)-methyl-amino]-propyl}-amino)-methyl]-phenyl ester]",> 6.00
